According to patent US20250025518A1, “USE OF BIFIDOBACTERIUM LACTIS BL-99 IN PROTECTION OF CARTILAGE” (Inner Mongolia Yili Industrial Group Co., Ltd., priority 2021, published 2025):

Test system: zebrafish cartilage
Test: Evaluation of cartilage protection efficacy: fluorescence intensity of cartilage in dexamethasone-induced zebrafish cartilage damage model
Type: in vivo
Conditions: for Fluorescence intensity of cartilage (pixel, mean ± SE): n = 10

## Chondroitin sulfate A sodium salt
Table 2, 1000 μg/mL
  Fluorescence intensity of cartilage (pixel, mean ± SE): 277530 ± 20981 pixel
Table 3, 1000 μg/mL
  Increased cartilage protection efficacy (%) compared with the model group: 44%
  Fluorescence intensity of cartilage (pixel, mean ± SE): 296517 ± 25160 pixel
